Experimental data reported in patent US20260274836A1, “NOVEL HEPATOSELECTIVE POLYADENYLATING POLYMERASES INHIBITORS AND THEIR METHOD OF USE” (Baruch S. Blumberg Institute, priority 2022, published 2026).

Tests used:
[1] = in vitro; assay type: cell-based; settings: human
Procedure: Assays for the anti-HAV activity of the hepatoselective DHQ compounds were carried out in Huh-7 human hepatoma cells using the 18f-NLuc reporter virus, which expresses nanoluciferase (NLuc) from sequence inserted into the polyprotein coding region of the HM175/18f HAV genome between the VP1pX and 2B coding sequences (Yamane et al., 2019). The method was modified minimally from that described by Misumi et al. for iminosugar compounds (Misumi et al., 2021). Cells (approximately […]) were plated in wells of a 96-well plate with Dulbecco's modified Eagle medium (DMEM) and 10% fetal bovine serum. The cells were inoculated 24 hrs later with 18f-NLuc virus (approximately 10^6-10^7 genome equivalents) in medium containing increasing concentrations of the compounds of interest. […] Luminescence was measured using a Biotek Synergy II multi-mode plate reader (BioTek Instruments). […] Cell toxicity of the compounds was assessed using the WST-1 Cell Proliferation Reagent (Sigma-Aldrich) at the end of the treatment period in parallel cultures of uninfected cells, with WST-1 reagent added to cultures for 1 hr prior to harvest and O.D. reading.
Additional exemplary compounds of the present invention are evaluated for anti-HAV activity in accordance with certain assays described hereinabove. […] Luminescence was measured using a Biotek Synergy II multi-mode plate reader (BioTek Instruments). […]

[2] = molecular target: T1, OATP1B1 (Homo sapiens, UniProt Q9Y6L6); assay: OATP1B1 transporter substrate uptake in OATP1B1-HEK293 cells; assay type: in vitro ADME
T1 construct: expressed in transfected cells; host or cells: HEK293
T1 sequence (Q9Y6L6 1-691): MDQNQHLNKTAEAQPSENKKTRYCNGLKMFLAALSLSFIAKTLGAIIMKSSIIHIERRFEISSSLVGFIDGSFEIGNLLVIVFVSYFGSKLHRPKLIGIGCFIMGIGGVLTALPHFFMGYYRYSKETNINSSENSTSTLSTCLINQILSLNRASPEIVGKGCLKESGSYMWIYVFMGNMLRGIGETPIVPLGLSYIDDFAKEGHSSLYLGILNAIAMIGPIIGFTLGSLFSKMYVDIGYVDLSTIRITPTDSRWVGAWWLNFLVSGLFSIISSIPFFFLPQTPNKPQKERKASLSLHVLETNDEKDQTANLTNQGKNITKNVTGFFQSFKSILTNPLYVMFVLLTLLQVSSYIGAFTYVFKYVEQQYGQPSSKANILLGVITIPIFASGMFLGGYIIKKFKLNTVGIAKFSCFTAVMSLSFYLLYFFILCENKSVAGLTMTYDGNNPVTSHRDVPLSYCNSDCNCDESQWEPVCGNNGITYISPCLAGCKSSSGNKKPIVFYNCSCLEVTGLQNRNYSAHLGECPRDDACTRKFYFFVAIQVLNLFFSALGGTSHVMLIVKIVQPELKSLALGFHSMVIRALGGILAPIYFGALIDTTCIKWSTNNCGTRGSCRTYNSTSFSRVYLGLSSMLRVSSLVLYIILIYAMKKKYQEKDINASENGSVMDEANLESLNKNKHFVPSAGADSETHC
Procedure: Protocol for identification of compounds that are substrates of transporters OATPIBI and OATPIB3. Transfected HEK293 and vector control HEK293 cells were cultured in 24-well poly-D-lysine or collagen-coated tissue culture plates ([…]) for 2 and 10 minutes respectively in transport buffer (HBSSg, pH 7.4, pre-warmed to 37° C.). At a defined time point, the uptake experiments were stopped by removing dosing solution followed by two washes of ice-cold HBSSg buffer. The cells were lysed for 2 minutes with 75% ACN containing an appropriate internal standard (when available). Lysis buffer were chilled to −20° C., and the plate was kept on ice during lysis. The cell lysate was transferred into a 96-well plate for sample analysis with LC-MS/MS analysis to determine concentration of test compound in cell lysate. The uptake of test compounds was normalized by total cell protein using the BCA Protein Assay Kit following the manufacturer's protocol. The inhibitor Rifamycin SV was used to block OATP1B1 and OATP1B3 transporter activity in order to determine uptake ratios.

COc1cc2c(cc1OCCCCCCC(=O)O)C[C@@H](C(C)C)n1cc(C(=O)O)c(=O)cc1-2 [Example 6, (S)-9-((6-carboxyhexyl)oxy)-6-isopropyl-10-methoxy-2-oxo-6,7-dihydro-2H-pyrido[2,1-a]isoquinoline-3-carboxylic acid]
CC50 at 48 h [1]: > 10 µM | Uptake Ratio (−/+Inhibitor) ([2]; OATP1B1-HEK293 cells, test concentration 1 μM, inhibitor Rifamycin SV): 11.17 | Uptake Ratio (Transporter(−Inhibitor)/Mock(−Inhibitor)) ([2]; OATP1B1-HEK293 vs mock HEK293, test concentration 1 μM): 18.99
